{
  "source": "paper PMC7377239",
  "about": "“Cardiovascular Effects of Polychlorinated Biphenyls and Their Major Metabolites” (Environmental Health Perspectives, 2020)",
  "tested_on": "iCell cardiomyocytes (human iPSC-derived cardiomyocytes)",
  "assay": "Intracellular Ca2+ flux / beating parameters in iCell cardiomyocytes (FLIPR tetra), 90 min or 24 h",
  "assay_type": "cell-based",
  "details": "Homo sapiens, Cardiomyocyte, 0.00 µM = 100.00; for activity at 0.1 µM: 0.10 µM",
  "experimental": "Details on cardiomyocyte cell culture are described in detail elsewhere ([Grimm et al. 2015b]; [Sirenko et al. 2013a]). Briefly, tissue-culture treated 384 well plates were gelatinized with 25μL per well of 0.1% (w/v) gelatin in water for 2 h at 37°C and 5% CO2 . Individual vials of cells were thawed for 4 min in a water bath maintained at 37°C. Thawed cells were resuspended in 10ml plating medium containing 1:500 (vol/vol) penicillin/streptomycin solution at room temperature (RT). Live cell counts for each cell suspension were determined by trypan blue staining and cells were further diluted to provide final cell densities of 2×10^5 viable cells/ml. Thus, 5,000 cells suspended in 25μL media were transferred per well after the gelatin solution had been discarded. Cell culture plates were rested for 30 min at RT before they were incubated for 48 h at 37°C and 5% CO2 . Then, a media exchange with 30μL of fresh maintenance medium containing 1:500 (vol/vol) penicillin/streptomycin solution was performed, and cell media were subsequently changed every 48 h for 12 d. On the experiment day, the medium was completely exchanged with either 25μL (for Ca^2+ flux assay) or 40μL (for imaging) of fresh medium.\nResponses of iCell®-cardiomyocytes to drugs and chemicals were evaluated using intracellular Ca^2+ flux measurements ([Grimm et al. 2015b]; [Sirenko et al. 2013b]). For experiments, 20 mM stock solutions of PCBs and PCB metabolites were prepared in DMSO ( 200× ). Chemical working solutions ( 5× ) were prepared using cardiomyocyte maintenance medium and contained 2.5% (vol/vol) DMSO. These chemical master plates were prepared to include all chemicals in concentration–response (0.05, 0.5, 5, 50, and 500μM ). Negative controls included media-only and vehicle control (i.e., 0.5% vol/vol DMSO in cell culture media) wells. Positive assay controls were consistent with previously published reports ([Grimm et al. 2018]) and included TAB ( 50μM ) as a cytotoxic control, and isoproterenol ( 0.1–10μM ), propranolol ( 0.1–5 μM ), cisapride ( 0.01–1μM ), and doxorubicin ( 0.1–5μM ) as chemicals associated with specific effects on beating and ion flux. Each test chemical was screened in triplicate for each concentration.\nExperiments started with the addition of 25μL of prewarmed 2× concentrated calcium dye reagent to sample wells containing 25μL maintenance media. Microplates were then acclimated for 2 h at 37°C. Following equilibration, cardiomyocyte sample wells were treated simultaneously by the addition of 12.5μL of prewarmed 5× chemical solution to iCell®-cardiomyocytes using the automated liquid handler in the FLIPR tetra (Molecular Devices). Treated cell cultures were incubated for either 90 min or 24 h. After the conclusion of the treatment period, the Ca^2+ flux was measured for 100 s at a frequency of 8 Hz using the integrated fluorescence plate reader in the FLIPR tetra (Molecular Devices) using an emission wavelength range of λemission=515–575 nm ( λexcitation=470–495 nm ). Additional instrument settings included exposure time per read of 0.05s, a gain of 2000, an excitation intensity of 30%, and an internal temperature of 37°C.\nCa^2+ flux data were processed in R studio (version 1.0.136, with R version 3.3.2; R Development Core Team) as described elsewhere ([Blanchette et al. 2019]; [Burnett et al. 2019]). Calculated quantitative metrics included the means and coefficients of variation (CV) of the peak height, which can be indicative of cytotoxicity, inhibition, or stimulation of beating. Means of peak frequency, an indicator of positive or negative […], and CV of peak spacing, an indicator of irregular beating, were also derived from Ca^2+ flux traces. Finally, the mean ratio of the decay over rise time was calculated. Increases in the decay/rise time ratio are reflective of delayed repolarization and are a measure for QT prolongation. […]",
  "key": {"[1]": {"details": "1.5 h, 90min, read-out: cm.amp.avg.90min"}, "[2]": {"details": "1.5 h, 90min, read-out: cm.amp.cv.90min"}, "[3]": {"details": "1.5 h, 90min, read-out: cm.bpm.90min"}, "[4]": {"details": "1.5 h, 90min, read-out: cm.decay.rise.90min"}, "[5]": {"details": "1.5 h, 90min, read-out: cm.spacing.cv.90min"}, "[6]": {"details": "24 h, 24hrs, read-out: cm.amp.avg.24hrs"}, "[7]": {"details": "24 h, 24hrs, read-out: cm.amp.cv.24hrs"}, "[8]": {"details": "24 h, 24hrs, read-out: cm.bpm.24hrs"}, "[9]": {"details": "24 h, 24hrs, read-out: cm.decay.rise.24hrs"}, "[10]": {"details": "24 h, 24hrs, read-out: cm.spacing.cv.24hrs"}},
  "note": "Where two headings read alike, the source gives them in different places.",
  "data": [
    {"smiles": "Clc1ccc(Cl)c(-c2cc(Cl)ccc2Cl)c1", "note": "[PCB52]", "values": [
      {"measurement": "activity at 0.01 µM", "setting": "[1]", "value": 97.9, "unit": "%"},
      {"measurement": "activity at 0.01 µM", "setting": "[2]", "value": 90.9, "unit": "%"},
      {"measurement": "activity at 0.01 µM", "setting": "[3]", "value": 102, "unit": "%"},
      {"measurement": "activity at 0.01 µM", "setting": "[4]", "value": 101, "unit": "%"},
      {"measurement": "activity at 0.01 µM", "setting": "[5]", "value": 93.9, "unit": "%"},
      {"measurement": "activity at 0.1 µM", "setting": "[1]", "value": 101, "unit": "%"},
      {"measurement": "activity at 0.1 µM", "setting": "[2]", "value": 102, "unit": "%"},
      {"measurement": "activity at 0.1 µM", "setting": "[3]", "value": 99.1, "unit": "%"},
      {"measurement": "activity at 0.1 µM", "setting": "[4]", "value": 101, "unit": "%"},
      {"measurement": "activity at 0.1 µM", "setting": "[5]", "value": 98.6, "unit": "%"},
      {"measurement": "activity at 1 µM", "setting": "[1]", "value": 105, "unit": "%"},
      {"measurement": "activity at 1 µM", "setting": "[2]", "value": 111, "unit": "%"},
      {"measurement": "activity at 1 µM", "setting": "[3]", "value": 97.8, "unit": "%"},
      {"measurement": "activity at 1 µM", "setting": "[4]", "value": 102, "unit": "%"},
      {"measurement": "activity at 1 µM", "setting": "[5]", "value": 91, "unit": "%"},
      {"measurement": "activity at 10 µM", "setting": "[1]", "value": 96.6, "unit": "%"},
      {"measurement": "activity at 10 µM", "setting": "[2]", "value": 99.4, "unit": "%"},
      {"measurement": "activity at 10 µM", "setting": "[3]", "value": 99.1, "unit": "%"},
      {"measurement": "activity at 10 µM", "setting": "[4]", "value": 111, "unit": "%"},
      {"measurement": "activity at 10 µM", "setting": "[5]", "value": 102, "unit": "%"},
      {"measurement": "activity at 100 µM", "setting": "[1]", "value": 44.4, "unit": "%"},
      {"measurement": "activity at 100 µM", "setting": "[2]", "value": 73, "unit": "%"},
      {"measurement": "activity at 100 µM", "setting": "[3]", "value": 0, "unit": "%"},
      {"measurement": "activity at 100 µM", "setting": "[4]", "value": 42.8, "unit": "%"},
      {"measurement": "activity at 100 µM", "setting": "[5]", "value": 71.6, "unit": "%"},
      {"measurement": "activity at 0.01 µM", "setting": "[6]", "value": 86.6, "unit": "%"},
      {"measurement": "activity at 0.01 µM", "setting": "[7]", "value": 98.1, "unit": "%"},
      {"measurement": "activity at 0.01 µM", "setting": "[8]", "value": 96.4, "unit": "%"},
      {"measurement": "activity at 0.01 µM", "setting": "[9]", "value": 111, "unit": "%"},
      {"measurement": "activity at 0.01 µM", "setting": "[10]", "value": 109, "unit": "%"},
      {"measurement": "activity at 0.1 µM", "setting": "[6]", "value": 84.6, "unit": "%"},
      {"measurement": "activity at 0.1 µM", "setting": "[7]", "value": 95.6, "unit": "%"},
      {"measurement": "activity at 0.1 µM", "setting": "[8]", "value": 90.7, "unit": "%"},
      {"measurement": "activity at 0.1 µM", "setting": "[9]", "value": 108, "unit": "%"},
      {"measurement": "activity at 0.1 µM", "setting": "[10]", "value": 89.3, "unit": "%"},
      {"measurement": "activity at 1 µM", "setting": "[6]", "value": 51.8, "unit": "%"},
      {"measurement": "activity at 1 µM", "setting": "[7]", "value": 42.2, "unit": "%"},
      {"measurement": "activity at 1 µM", "setting": "[8]", "value": 46.8, "unit": "%"},
      {"measurement": "activity at 1 µM", "setting": "[9]", "value": 55.5, "unit": "%"},
      {"measurement": "activity at 1 µM", "setting": "[10]", "value": 44.5, "unit": "%"},
      {"measurement": "activity at 10 µM", "setting": "[6]", "value": 86.5, "unit": "%"},
      {"measurement": "activity at 10 µM", "setting": "[7]", "value": 119, "unit": "%"},
      {"measurement": "activity at 10 µM", "setting": "[8]", "value": 93.6, "unit": "%"},
      {"measurement": "activity at 10 µM", "setting": "[9]", "value": 127, "unit": "%"},
      {"measurement": "activity at 10 µM", "setting": "[10]", "value": 98.5, "unit": "%"},
      {"measurement": "activity at 100 µM", "setting": "[6]", "value": 0, "unit": "%"},
      {"measurement": "activity at 100 µM", "setting": "[7]", "value": 0, "unit": "%"},
      {"measurement": "activity at 100 µM", "setting": "[8]", "value": 0, "unit": "%"},
      {"measurement": "activity at 100 µM", "setting": "[9]", "value": 0, "unit": "%"},
      {"measurement": "activity at 100 µM", "setting": "[10]", "value": 0, "unit": "%"}
    ]}
  ]
}
